Experimental data reported in patent US20250136570A1 (Tango Therapeutics, Inc., priority 2021, published 2025).

How the values were obtained:
HDAC3/NCor2 = HDAC3/NCor2 (Homo sapiens (Human), UniProt O15379); test: HDAC3 inhibition, Fluor de Lys fluorescent enzyme assay; type: biochemical; settings: 3 hours pre-incubation at room temp; 1.2 nM enzyme; 16 μM Fluor de Lys substrate; duplicate
Excerpt: (§1) Recombinant HDAC1 (cat #: 50051) and HDAC3/NCor2 (cat #: 50003) enzymes were purchased from BPS Bioscience (San Diego, CA, US). Assay reagents for the detection of HDAC enzyme activity (Fluor de Lys®—Green substrate and Developer kits) were purchased from Enzo Life Science (Farmingdale, NY, US). Plates used to conduct the enzyme reaction were Proxiplate-384 (cat #: 6008280) Plus from PerkinElmer (Waltham, MA, US). TSA, an HDAC inhibitor, was purchased from Enzo Life Science (cat #BML-GR309-9090) The remainder of the reagents used to prepare the assay buffer were purchased from Sigma-Aldrich (St Louis, MO, US). Unless stated otherwise, HDAC1 and 3 assays were conducted in 50 mM Tris buffer, pH 8, 137 mM NaCl, 2.7 mM KCl, 0.01% BSA.
(§2) IC50 determination for HDAC1 and HDAC3—Prior to adding reagents, 50 nL/well of compound were added to Proxiplates using an Echo dispenser instrument (Beckman Coulter, CA, US). After addition of compound, 2.5 μL/well of 2× enzyme solution was added and the enzyme was pre-incubated with compound for 3 hours at room temp. (˜22° C.). After the pre-incubation period, the enzyme reaction was initiated by adding 2.5 μL/well of 2× Fluor de Lys® substrate solution. The assay reaction was stopped after one hour by adding 5 μl/well of a 0.66× Developer solution containing TSA (3.2 μM). The final product of the enzyme reaction was read using a Spectramax plate reader instrument (Molecular Devices, CA, US) using a fluorescent readout (Ex 360 nm/Em 460 nm). The final enzyme concentrations in the assay buffer for HDAC1 and 3 were 6 and 1.2 nM, respectively. The final Fluor de Lys® substrate concentration in the assay buffer was 16 μM for all HDAC enzymes. IC50 values were determined using the following equation: […]
(§3) Where Efree and Eo are the free and total amount of HDAC enzyme in the reaction mixture, n is the hill coefficient, I is the free inhibitor concentration, and IC50 is the measure of the potency equivalent to the inhibitor concentration that leads to a 50% occupancy of the total enzyme. Each data was generated in duplicate.

Recombinant HDAC1 = Recombinant HDAC1 (Homo sapiens (Human), UniProt Q13547); test: HDAC1 inhibition, Fluor de Lys fluorescent enzyme assay; type: biochemical; settings: 3 hours pre-incubation at room temp; 6 nM enzyme; 16 μM Fluor de Lys substrate; duplicate
Recombinant HDAC1, sequence (Q13547 whole entry): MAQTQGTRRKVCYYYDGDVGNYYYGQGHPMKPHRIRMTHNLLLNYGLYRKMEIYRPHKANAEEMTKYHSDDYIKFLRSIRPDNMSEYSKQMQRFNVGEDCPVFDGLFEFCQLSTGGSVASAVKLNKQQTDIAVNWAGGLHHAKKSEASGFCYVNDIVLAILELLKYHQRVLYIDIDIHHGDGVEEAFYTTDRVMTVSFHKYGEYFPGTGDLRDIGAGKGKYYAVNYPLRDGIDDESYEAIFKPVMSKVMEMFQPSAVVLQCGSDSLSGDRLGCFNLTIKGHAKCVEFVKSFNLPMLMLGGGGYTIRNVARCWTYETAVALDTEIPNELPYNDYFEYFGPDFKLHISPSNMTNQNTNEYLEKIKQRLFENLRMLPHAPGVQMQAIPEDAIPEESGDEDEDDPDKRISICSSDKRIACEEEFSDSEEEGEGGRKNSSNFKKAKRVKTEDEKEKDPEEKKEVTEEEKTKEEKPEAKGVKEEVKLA
Excerpt: as §1, §2, §3

HDAC3/NCor2, sequence (O15379 whole entry): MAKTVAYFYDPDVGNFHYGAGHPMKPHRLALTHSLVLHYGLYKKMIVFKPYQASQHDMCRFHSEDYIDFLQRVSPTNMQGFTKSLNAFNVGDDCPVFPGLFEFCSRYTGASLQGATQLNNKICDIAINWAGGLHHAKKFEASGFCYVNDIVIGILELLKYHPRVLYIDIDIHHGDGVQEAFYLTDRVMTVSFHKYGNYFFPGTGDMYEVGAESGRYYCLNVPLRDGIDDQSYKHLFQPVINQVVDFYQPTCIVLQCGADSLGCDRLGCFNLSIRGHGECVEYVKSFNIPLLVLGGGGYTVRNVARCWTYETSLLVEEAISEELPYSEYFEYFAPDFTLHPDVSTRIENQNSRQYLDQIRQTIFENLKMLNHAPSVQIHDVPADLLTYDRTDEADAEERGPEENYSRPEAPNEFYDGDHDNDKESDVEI
HDAC3/NCor2, sequence (Q9Y618 395-489 partner): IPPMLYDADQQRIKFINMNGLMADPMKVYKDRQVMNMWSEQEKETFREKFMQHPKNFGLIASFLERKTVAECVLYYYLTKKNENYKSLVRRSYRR

SMILES	IC50 (HDAC3/NCor2)	IC50 (Recombinant HDAC1)
CS(=N)(=O)c1ccc(C(=O)Nc2cc(-c3cccnn3)ccc2N)cc1 (stereo not shown) [Compound 157, N-(2-amino-5-pyridazin-3-yl-phenyl)-4-(methylsulfonimidoyl)benzamide]	> 2000 nM	< 100 nM
CS(=N)(=O)c1ccc(C(=O)Nc2cc(-c3ccc(F)cc3F)ccc2N)cc1 (stereo not shown) [Compound 117, N-[2-amino-5-(2,4-difluorophenyl)phenyl]-4-(methylsulfonimidoyl)benzamide]	> 2000 nM	< 100 nM
CCN=S(C)(=O)c1ccc(C(=O)Nc2cc(-c3ccc(F)cc3)ccc2N)cn1 (stereo not shown) [Compound 169, N-[2-amino-5-(4-fluorophenyl)phenyl]-6-(N-ethyl-S-methyl-sulfonimidoyl)pyridine-3-carboxamide]	500 to 2000 nM	< 100 nM
CS(=N)(=O)Cc1ccc(C(=O)Nc2cc(-c3ccc(F)cc3)ccc2N)cn1 (stereo not shown) [Compound 201]	500 to 2000 nM	
CS(=N)(=O)c1ccc(C(=O)Nc2cc(-c3cccnc3)ccc2N)cc1 (stereo not shown) [Compound 107, N-[2-amino-5-(3-pyridyl)phenyl]-4-(methylsulfonimidoyl)benzamide]	500 to 2000 nM	100 to 500 nM
CS(=N)(=O)C1(c2ccc(C(=O)Nc3cc(-c4ccc(F)cc4)ccc3N)cc2)CC1 (stereo not shown) [Compound 251, N-[2-amino-5-(4-fluorophenyl)phenyl]-4-[1-(methylsulfonimidoyl)cyclopropyl]benzamide]	500 to 2000 nM	< 100 nM
CS(=N)(=O)c1cc2ccc(C(=O)Nc3cc(-c4ccc(F)cc4)ccc3N)cc2o1 (stereo not shown) [Compound 187, N-[2-amino-5-(4-fluorophenyl)phenyl]-2-(methylsulfonimidoyl)benzofuran-6-carboxamide]	500 to 2000 nM	< 100 nM
CCN=S(C)(=O)c1ccc2sc(C(=O)Nc3cc(-c4ccc(F)cc4)ccc3N)cc2c1 (stereo not shown) [Compound 207, N-[2-amino-5-(4-fluorophenyl)phenyl]-5-(N-ethyl-S-methyl-sulfonimidoyl)benzothiophene-2-carboxamide]	500 to 2000 nM	< 100 nM
CCN=S(C)(=O)c1ccc(C(=O)Nc2cc(-c3ccc(F)cc3)ccc2N)cc1 (stereo not shown) [Compound 165, N-[2-amino-5-(4-fluorophenyl)phenyl]-4-(N-ethyl-S-methyl-sulfonimidoyl)benzamide]	500 to 2000 nM	< 100 nM
Nc1ccc(-c2ccc(F)cc2)cc1NC(=O)c1ccc(S2(=O)=NCCC2)cc1 (stereo not shown) [Compound 154, N-[2-amino-5-(4-fluorophenyl)phenyl]-4-(1-oxo-4,5-dihydro-3H-isothiazol-1-yl)benzamide]	500 to 2000 nM	
CS(=N)(=O)Cc1ccc(C(=O)Nc2cc(-c3cccs3)ccc2N)cc1 (stereo not shown) [Compound 128, N-[2-amino-5-(2-thienyl)phenyl]-4-[(methylsulfonimidoyl)methyl]benzamide]	500 to 2000 nM	< 100 nM
Cc1csc(-c2ccc(N)c(NC(=O)c3ccc(S(C)(=N)=O)cc3)c2)c1 (stereo not shown) [Compound 135, N-[2-amino-5-(4-methyl-2-thienyl)phenyl]-4-(methylsulfonimidoyl)benzamide]	> 2000 nM	< 100 nM
CS(=N)(=O)c1ccc(C(=O)Nc2cc(-c3cncs3)ccc2N)cc1 (stereo not shown) [Compound 148, N-(2-amino-5-thiazol-5-yl-phenyl)-4-(methylsulfonimidoyl)benzamide]	500 to 2000 nM	< 100 nM
N=S(=O)(c1ccc(C(=O)Nc2cc(-c3ccc(F)cc3)ccc2N)cc1)c1ccc(C(F)(F)F)nc1 (stereo not shown) [Compound 205, N-[2-amino-5-(4-fluorophenyl)phenyl]-4-[[6-(trifluoromethyl)-3-pyridyl]sulfonimidoyl]benzamide]	> 2000 nM	< 100 nM
N=S(=O)(c1ccc(C(=O)Nc2cc(-c3ccc(F)cc3)ccc2N)cc1)c1cnccc1C1CC1 (stereo not shown) [Compound 191, N-[2-amino-5-(4-fluorophenyl)phenyl]-4-[(4-cyclopropyl-3-pyridyl)sulfonimidoyl]benzamide]	500 to 2000 nM	< 100 nM
Nc1ccc(-c2ccc(F)cc2)cc1NC(=O)c1cc2cc(S3(=O)=NCCC3)ccc2o1 (stereo not shown) [Compound 210]	500 to 2000 nM	< 100 nM
C[S@](=N)(=O)c1ccc(C(=O)Nc2cc(-c3ccc(F)cc3)ccc2N)cc1 [Compound 134, (S)—N-[2-amino-5-(4-fluorophenyl)phenyl]-4-(methylsulfonimidoyl)benzamide]	500 to 2000 nM	< 100 nM
Nc1ccc(-c2ccc(F)cc2)cc1NC(=O)c1ccc(S2(=O)=NCCC2)nc1 (stereo not shown) [Compound 178, N-[2-amino-5-(4-fluorophenyl)phenyl]-6-(1-oxo-4,5-dihydro-3H-isothiazol-1-yl)pyridine-3-carboxamide]	500 to 2000 nM	
N=S(=O)(c1ccc(C(=O)Nc2cc(-c3ccc(F)cc3)ccc2N)cc1)c1ccc(Cl)cn1 (stereo not shown) [Compound 213]	500 to 2000 nM	
Nc1ccc(-c2ccc(F)s2)cc1NC(=O)c1ccc(S2(=O)=NCCC2)cc1 (stereo not shown) [Compound 160, N-[2-amino-5-(5-fluoro-2-thienyl)phenyl]-4-(1-oxo-4,5-dihydro-3H-isothiazol-1-yl)benzamide]	500 to 2000 nM	
Nc1ccc(-c2ccc(F)cc2)cc1NC(=O)c1cc2cc(S3(=O)=NCCC3)ccc2s1 (stereo not shown) [Compound 204]	500 to 2000 nM	

Now from value to compound:

IC50 (HDAC3/NCor2)	IC50 (Recombinant HDAC1)	SMILES
500 to 2000 nM	< 100 nM	N=[S@@](=O)(c1ccc(C(=O)Nc2cc(-c3cccs3)ccc2N)cc1)C1CC1 (single isomer, unassigned) [Compound 115]
500 to 2000 nM		Nc1ccc(-c2cccs2)cc1NC(=O)c1ccc(S2(=O)=NCCC2)cc1 (stereo not shown) [Compound 126, N-[2-amino-5-(2-thienyl)phenyl]-4-(1-oxo-4,5-dihydro-3H-isothiazol-1-yl)benzamide]
500 to 2000 nM	< 100 nM	CS(=N)(=O)c1coc2cc(C(=O)Nc3cc(-c4ccc(F)cc4)ccc3N)ccc12 (stereo not shown) [Compound 258, N-[2-amino-5-(4-fluorophenyl)phenyl]-3-(methylsulfonimidoyl)benzofuran-6-carboxamide]
500 to 2000 nM	< 100 nM	CS(=N)(=O)c1ccc(C(=O)Nc2cc(-c3ccc(F)cc3)ccc2O)cc1 (stereo not shown) [Compound 130, N-[5-(4-fluorophenyl)-2-hydroxy-phenyl]-4-(methylsulfonimidoyl)benzamide]
500 to 2000 nM	< 100 nM	CC(C)(C)C(=O)N=S(C)(=O)c1ccc(C(=O)Nc2cc(-c3cccs3)ccc2N)cc1 (stereo not shown) [Compound 125, N-[2-amino-5-(2-thienyl)phenyl]-4-[N-(2,2-dimethylpropanoyl)-S-methyl-sulfonimidoyl]benzamide]
500 to 2000 nM	< 100 nM	N=S(=O)(c1ccc(C(=O)Nc2cc(-c3ccc(F)s3)ccc2N)cc1)C1CC1 (racemic) [Compound 127, rac-N-[2-amino-5-(5-fluoro-2-thienyl)phenyl]-4-(cyclopropylsulfonimidoyl)benzamide]
500 to 2000 nM	< 100 nM	C[S@@](=N)(=O)c1ccc(C(=O)Nc2cc(-c3ccc(F)cc3)ccc2N)cc1 [Compound 132, (R)—N-[2-amino-5-(4-fluorophenyl)phenyl]-4-(methylsulfonimidoyl)benzamide]
500 to 2000 nM	< 100 nM	CS(=O)(=NC#N)c1ccc(C(=O)Nc2cc(-c3cccs3)ccc2N)cc1 (stereo not shown) [Compound 153, N-[2-amino-5-(2-thienyl)phenyl]-4-(N-cyano-S-methyl-sulfonimidoyl)benzamide]
500 to 2000 nM		Nc1ccc(-c2ccc(F)cc2)cc1NC(=O)c1ccc(S2(=O)=NCCCC2)cc1 (stereo not shown) [Compound 243, N-[2-amino-5-(4-fluorophenyl)phenyl]-4-(1-oxo-1thia-2-azacyclohexen-1-yl)benzamide]
500 to 2000 nM	< 100 nM	N=S(=O)(c1ccc(C(=O)Nc2cc(-c3ccc(F)cc3)ccc2N)cc1)c1cccnn1 (stereo not shown) [Compound 174, N-[2-amino-5-(4-fluorophenyl)phenyl]-4-(pyridazin-3-ylsulfonimidoyl)benzamide]
500 to 2000 nM	< 100 nM	COCCS(=N)(=O)c1ccc(C(=O)Nc2cc(-c3cccs3)ccc2N)nc1 (stereo not shown) [Compound 121, N-[2-amino-5-(2-thienyl)phenyl]-5-(2-methoxyethylsulfonimidoyl)pyridine-2-carboxamide]
100 to 500 nM	< 100 nM	CS(=N)(=O)c1ccc(C(=O)Nc2cc(-c3ccc(F)s3)ccc2N)nn1 (stereo not shown) [Compound 152, N-[2-amino-5-(5-fluoro-2-thienyl)phenyl]-6-(methylsulfonimidoyl)pyridazine-3-carboxamide]
